According to publication PMC11623267, “Inhibitors of malaria parasite cyclic nucleotide phosphodiesterases block asexual blood-stage development and mosquito transmission” (Science Advances, 2024):
Like-named read-outs stand apart in the source and are kept apart here.

Assays:
[1] = system: P. falciparum ABS; details: read-out: Median effective dose, P. falciparum ABS growth inhibition; cited from earlier work
[2] = system: P. falciparum 3D7; test: P. falciparum 3D7 LDH growth inhibition assay (asexual blood stage); assay type: cell-based, Plasmodium falciparum
Procedure: P. falciparum isolates (3D7/Dd2) were obtained from BEI Resources and were cultured using standard procedures as described elsewhere ([47]). Briefly, P. falciparum was grown in RPMI 1640 medium (10.3 g/liter) supplemented with L-glutamine (2 mM), hypoxanthine (150 μM), Hepes (25 mM), D-glucose (12 mM), sodium bicarbonate (25.7 mM), AlbuMAX II (0.5% or 5 g/liter) (pH 7.4), and 2% RBC (type O+, freshly prepared). Cultures were replenished with fresh medium and RBCs every other day. For RBC preparation, whole blood was centrifuged at 415g at room temperature for 12 min. After that, the plasma and buffy coat were removed, and packed RBCs were washed three times with 3 vol of RPMI 1640. Last, RBCs were resuspended in 1:1 vol of complete RPMI 1640 medium (containing 0.5% AlbuMAX II).
The P. falciparum 3D7 and Dd2 LDH growth inhibition assay was carried out as described elsewhere ([48]) with minor modification of the parasitological conditions (10 to 15% parasitemia with ≥80% rings). Data were normalized to percent growth inhibition with respect to […] (for 3D7, a mixture of 100 nM chloroquine and 100 nM atovaquone as 100% inhibition; for Dd2, a mixture of 200 nM DHA and 200 nM atovaquone as 100% inhibition) controls.

[3] = target: T1, PDEβ (Plasmodium falciparum, UniProt Q8I6Z7); test: cAMP hydrolysis SPA in schizont membrane lysates; assay type: biochemical; details: read-out: IC50 against PDEβ
T1 construct: endogenous in cells; host or cells: P. falciparum 3D7 schizonts, NP-40 membrane lysate
T1 sequence (Q8I6Z7 whole entry): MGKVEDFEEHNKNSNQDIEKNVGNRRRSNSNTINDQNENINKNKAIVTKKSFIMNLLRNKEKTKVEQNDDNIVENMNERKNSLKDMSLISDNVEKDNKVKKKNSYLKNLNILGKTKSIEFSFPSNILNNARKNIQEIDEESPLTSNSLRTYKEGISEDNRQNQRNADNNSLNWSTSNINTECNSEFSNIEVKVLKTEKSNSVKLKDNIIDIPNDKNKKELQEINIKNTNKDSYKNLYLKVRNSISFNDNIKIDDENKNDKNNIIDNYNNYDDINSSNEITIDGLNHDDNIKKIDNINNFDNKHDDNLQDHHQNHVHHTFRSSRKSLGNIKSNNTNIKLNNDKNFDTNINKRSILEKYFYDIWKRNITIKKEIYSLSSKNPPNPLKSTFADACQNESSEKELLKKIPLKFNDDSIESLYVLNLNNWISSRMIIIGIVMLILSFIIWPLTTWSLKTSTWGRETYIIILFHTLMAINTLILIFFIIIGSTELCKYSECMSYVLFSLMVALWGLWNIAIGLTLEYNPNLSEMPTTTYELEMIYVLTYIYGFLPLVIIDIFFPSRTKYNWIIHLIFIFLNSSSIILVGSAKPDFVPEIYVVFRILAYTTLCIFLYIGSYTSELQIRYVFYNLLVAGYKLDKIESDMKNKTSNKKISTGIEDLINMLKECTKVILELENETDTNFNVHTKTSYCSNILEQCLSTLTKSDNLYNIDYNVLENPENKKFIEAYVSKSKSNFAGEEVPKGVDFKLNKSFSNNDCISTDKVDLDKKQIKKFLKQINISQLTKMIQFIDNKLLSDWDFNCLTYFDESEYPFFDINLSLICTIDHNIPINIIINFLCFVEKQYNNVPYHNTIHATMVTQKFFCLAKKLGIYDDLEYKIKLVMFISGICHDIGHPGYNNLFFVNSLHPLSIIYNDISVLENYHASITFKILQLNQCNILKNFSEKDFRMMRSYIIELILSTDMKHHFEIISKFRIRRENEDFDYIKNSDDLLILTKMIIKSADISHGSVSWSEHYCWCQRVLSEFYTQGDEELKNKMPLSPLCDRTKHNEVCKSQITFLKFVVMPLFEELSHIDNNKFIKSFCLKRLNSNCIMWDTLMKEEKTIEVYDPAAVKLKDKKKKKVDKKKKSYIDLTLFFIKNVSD
Source text: We identified three PDE inhibitor chemical series generated by Pfizer, with structures in the public domain, which have activity against malaria parasites (see the “Chemistry strategy summary” section). These series were originally designed to inhibit human PDEs and were chosen as chemistry start points to optimize activity against malaria parasites. More than 400 new analogs were generated (full details of their properties will be reported in a separate paper, in preparation) through iterative rounds of synthesis and testing. The chemistry start points for each of the series were SAL-0010042 (5-benzyl), SAL-0010043 (5-aryl), and SAL-0010034 (2-alkyl) (see Materials and Methods and fig. S1A). S2. Analytical data for these compounds are provided in data S1. All newly synthesized compounds were tested for inhibition of native cAMP-PDE activity in mature schizont crude membrane preparations and inhibition of P. falciparum ABS growth. S3A. […] The unbound EC50 values for the compounds in the parasite growth inhibition assay were consistently calculated to be sevenfold higher than the IC50 values in the biochemical assay. Given that PDEβ is dual specific (i.e., can hydrolyze both cAMP and cGMP), we also determined IC50 values for cGMP hydrolysis. […] The IC50 values measured for cGMP hydrolysis in blood-stage schizonts were generally similar to those for cAMP hydrolysis (Table 1). […]
(§1) The cyclic nucleotide hydrolytic activity of membrane-associated parasite PDE enzymes was measured by a scintillation proximity assay (SPA) ([18]) using lysates of mature P. falciparum schizonts or stage IV/V gametocytes. […] The IC50 values for the compounds were determined using threefold serial dilutions in duplicate. […] The reactions were terminated by addition of 25 μl of PDE SPA beads (PerkinElmer, RPNQ0150), and after 20 min of incubation at room temperature, scintillation was measured using a Wallac 1450 Microbeta Counter (PerkinElmer) for 30 s. […]

[4] = system: cGMP-PDE activity in gametocyte lysates (PDEα, PDEδ); test: cGMP hydrolysis SPA in stage IV/V gametocyte membrane lysates; assay type: biochemical, Plasmodium falciparum; details: gametocyte lysate; geometric mean ×/÷ geometric SD
Procedure: cGMP signaling is known to play an essential role in gametogenesis in Plasmodium ([19], [20], [28]). We therefore tested the effects of all newly synthesized analogs for their ability to inhibit cGMP hydrolysis in crude gametocyte membrane preparations. […] S5A. These findings were also consistent with our enzyme-linked immunosorbent assay (ELISA)–based measurement of elevated cGMP levels in gametocytes following incubation with an example of each subseries (Fig. 2A). […] The levels of cAMP detected in gametocytes were similar in dimethyl sulfoxide (DMSO)–, XA-, and inhibitor-treated samples, and we could detect little or no cAMP hydrolysis in mature gametocytes (fig. S5B). […]
as §1

[5] = system: P. falciparum Dd2-B2; test: 72-hour flow cytometry EC50 assay, Dd2-B2 parental line; assay type: cell-based, Plasmodium falciparum; details: Plasmodium falciparum, DD2, read-out: EC50 Dd2-B2 parental line
Procedure: (§2) Stocks of SAL-0010003 (5-benzyl), SAL-0010355 (5-aryl), and SAL-0010419 (2-alkyl) were made at 10 and 1 mM in DMSO. Aliquots in use were stored at −20°C, and long-term storage was at −80°C. All in vitro studies were done such that the final DMSO concentration was <0.5%. P. falciparum ABS parasites were cultured at 3% hematocrit in human O+ RBCs in RPMI 1640 medium, supplemented with 25 mM Hepes, 50 mg L-hypoxanthine, 2 mM L-glutamine, 0.225% sodium bicarbonate, 0.5% (w/v) AlbuMAX II (Invitrogen) and gentamycin (10 μg/ml), in modular incubator chambers (Billups-Rothenberg) at 5% O2, 5% CO2, and 90% N2 at 37°C. Dd2-B2 (obtained from T. Wellems, National Institute of Allergy and Infectious Diseases, National Institutes of Health) is a genetically homogenous line that was cloned from Dd2 by limiting dilution. To define the EC50 and EC90 values of ABS parasites, Dd2-B2 ring-stage cultures at 0.2% parasitemia and 1% hematocrit were exposed for 72 hours to a range of 10 drug concentrations that were twofold serially diluted in duplicates along with drug-free controls. Parasite survival was assessed by flow cytometry on an iQue flow cytometer (Sartorius) using SYBR Green and MitoTracker Deep Red FM (Life Technologies) as nuclear stain and vital dyes, respectively. After determination of the EC50 and EC90 values for the three compounds with the P. falciparum Dd2-B2 clone, one single-step selection was set up using 2 × 10^5 parasites in each well of a 96-well plate at a starting concentration of 3× EC90. Parasites were cleared from the culture rapidly, and cultures were screened three times weekly by flow cytometry and counted as positive for recrudescence when the overall parasitemia reached 0.3% and the parasites were visible on a blood smear. DNA was extracted from recrudescent lines using a QIAGEN QIAamp Blood Mini Kit, and libraries were prepared with the Illumina DNA Prep kit for whole-genome sequencing on the Illumina MiSeq using a V3 2 × 300–base pair flow cell.

[6] = system: P. falciparum Dd2-B2 lines selected under drug pressure; test: 72-hour flow cytometry EC50 assay, lines selected under drug pressure; assay type: cell-based, Plasmodium falciparum; details: for EC50: Plasmodium falciparum
Procedure: Three examples of an additional compound series developed independently [NPD-2958, NPD-3518 ([31]), and NPD-3738; fig.
as §2

[7] = system: malaria parasites; set-up: method as in PMID 25951195, PMID 33262483; details: cited from earlier work

CCCOc1ccccc1-c1nc2nn[nH]c2c(=O)[nH]1 [zaprinast]
EC50 [1]: 35000 nM

CCCc1n[nH]c2c(=O)[nH]c(-c3cc(S(=O)(=O)N4CCN(C)CC4)ccc3OCC)nc12 [des-Me sildenafil, desmethyl (des-Me) sildenafil]
EC50 ([2]; Plasmodium falciparum, 3D7, read-out: EC50 against ABS parasites): 415 nM
Difference in ABS EC50 vs sildenafil ([2]; des-Me sildenafil vs sildenafil): > 60 fold
IC50 [3]: 36.7 nM

CCc1c2nc(-c3cc(-c4cccnc4)cnc3OCC(C)C)[nH]c(=O)c2nn1CCOC [SAL-0010419]
IC50 [4]: > 10000 nM
EC50 [5]: 61.4 nM
EC50 ([6]; DD2, read-out: EC50, line selected with SAL-0010419, Well C4): 360 nM
EC50 ([6]; DD2, read-out: EC50, line selected with SAL-0010419, Well E11): 344 nM
EC50 ([6]; DD2, read-out: EC50, line selected with SAL-0010419, Well F8): 293 nM
Mean fold change in EC50 ([6]; selected lines vs Dd2-B2 parental line, ±SD): 5.4 ± 0.6 fold
EC50 shift, line selected with SAL-0010419, Well C4 ([6]; vs Dd2-B2): 5.9 fold
EC50 shift, line selected with SAL-0010419, Well E11 ([6]; vs Dd2-B2): 5.6 fold
EC50 shift, line selected with SAL-0010419, Well F8 ([6]; vs Dd2-B2): 4.8 fold

CN1CC(=O)N2[C@H](c3ccc4c(c3)OCO4)c3[nH]c4ccccc4c3C[C@@H]2C1=O [tadalafil]
IC50 against malaria parasites [7]: mid-to-high micromolar range
